PMC5715595 (British Journal of Pharmacology, 2017)
Read-outs that look alike come from different tables or passages of the source.

Tests used:
canine Purkinje fibres = tested on: canine Purkinje fibres; set-up: method as in Fazekas et al., 1998; settings: mexiletine (10 mM) added after erythromycin, ref Fazekas et al., 1998; cited from earlier work
late sodium current = tested on: late sodium current; set-up: method as in Johannesen et al., 2016; settings: at the concentrations that caused approximately 20 ms shortening of QTc; ref Johannesen et al., 2016; cited from earlier work
late INa [1] = settings: read-out: IC50 for late INa; ref Gao et al., 2013; cited from earlier work
fast INa = settings: read-out: IC50 for fast INa; ref Gao et al., 2013; cited from earlier work
hERG channel [2] = settings: cited from earlier work
[3] = in vivo; cited from earlier work
anaesthetized rabbits = tested on: anaesthetized rabbits
Protocol: All the other experimental groups were 100% female. Animals were anaesthetized with sodium pentobarbital (45–60 mg·kg^−1 i.v.), maintained on a heated pad and mechanically ventilated with room air. […] A fluid‐filled catheter was inserted into the carotid artery to measure systemic arterial blood pressure and for blood sampling. A venous catheter was implanted into the jugular vein for infusion of drugs. Standard surface ECG leads I, II and III were monitored continuously to measure ECG intervals and the occurrence of ventricular tachyarrhythmia. Measurements of arterial blood pressures were calculated over 30 s duration at baseline and every 5 min. […] Then, for all determinations, the means of 10–30 consecutive sinus beats were automatically calculated at each time point (i.e. at the end of the stabilization period and then every 5 until 60 min after starting drug infusion) or until the occurrence of premature ventricular beats. Parameters recorded were systolic, diastolic and mean arterial blood pressure (mmHg), heart rate (beats·min^‐1 calculated from RR interval) as well as PR, QRS and QT/QTU intervals (ms), amplitudes of T‐wave and U‐wave (mV) and rhythm disturbances retrieved from ECG signals. […] Arrhythmia were scored according to the following scale: 0 being no arrhythmia, 1 being premature beats, 2 being auriculo‐ventricular blocks, 3 being ventricular tachycardia and 4 being TdP; and scores correspond to the average of maximal life‐threatening arrhythmias recorded during the experiment. […] Haemodynamic and ECG recordings were monitored continuously over 60 min following the start of infusion.

[4] = tested on: methoxamine‐sensitized rabbits; assay: in vivo; set-up: species or system rabbit; settings: clofilium 20.5 μg·kg^−1·min^−1
Protocol: All the other experimental groups were 100% female.
The anaesthetized methoxamine‐sensitized rabbit model of TdP is frequently used to study torsadogenic potential of drugs (Carlsson et al., 1990). Briefly, female animals were pre‐sensitized with i.v. infusion of methoxamine, an α1‐adrenoceptor agonist, delivered at 15 μg·kg^−1·min^−1 (6 mL·h^−1) over 70 min.

late INa [5] = settings: at clinical Cmax; ref Vicente et al., 2015; cited from earlier work
KV4.3 = biological target: T1, KV4.3 (Homo sapiens, UniProt Q9UK17); assay: Whole-cell patch clamp on KV4.3 (Ito); assay type: cell-based; settings: read-out: Reference compound % inhibition
T1 construct: expressed in transfected cells
T1 sequence (Q9UK17 1-655): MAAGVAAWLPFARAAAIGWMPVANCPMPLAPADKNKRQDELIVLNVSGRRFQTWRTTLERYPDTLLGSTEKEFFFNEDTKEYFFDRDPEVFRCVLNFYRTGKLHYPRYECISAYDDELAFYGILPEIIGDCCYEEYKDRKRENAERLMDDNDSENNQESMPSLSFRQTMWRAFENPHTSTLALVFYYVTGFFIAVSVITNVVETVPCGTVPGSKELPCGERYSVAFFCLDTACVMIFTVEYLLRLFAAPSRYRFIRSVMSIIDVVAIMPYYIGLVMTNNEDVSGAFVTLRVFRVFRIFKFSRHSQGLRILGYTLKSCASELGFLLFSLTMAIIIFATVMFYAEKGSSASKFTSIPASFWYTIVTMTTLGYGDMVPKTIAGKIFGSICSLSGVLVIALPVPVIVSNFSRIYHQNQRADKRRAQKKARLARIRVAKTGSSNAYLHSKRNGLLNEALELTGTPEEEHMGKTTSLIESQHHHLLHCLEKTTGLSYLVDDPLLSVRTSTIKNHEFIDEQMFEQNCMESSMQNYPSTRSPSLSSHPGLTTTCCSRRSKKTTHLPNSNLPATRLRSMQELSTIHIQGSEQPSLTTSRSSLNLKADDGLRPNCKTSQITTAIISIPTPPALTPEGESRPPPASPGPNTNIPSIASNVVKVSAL
Protocol: (§1) and CiPA Initiative Studies
(§2) =============================================================
(§3) In vitro studies on other ion channels […]
(§4) through NaV1.5, KV4.3, KV7.1/mink, Kir2.1, KV1.5, CaV1.2 and CaV3.2 channels.
(§5) 35-mm dish culture in the conditions mentioned in standard cell culture conditions. Experiments were performed with a cell density enabling isolated cells for patch clamping. Cells were continuously superfused with extracellular medium (1-2 mL∙minute-1) at room temperature.
(§6) D-glucose 10, HEPES 10 and the final pH adjusted to 7.4±0.02 with NaOH for recording NaV1.5, KV4.3, KV7.1/mink, Kir2.1, KV1.5 and CaV3.2 currents. It was (in mM): NaCl 110, KCl 4, BaCl2 20, MgCl2 1, D-glucose 20, HEPES 10 and the final pH adjusted to 7.4 ± 0.02 with NaOH for recording the CaV1.2 current. Compositions of the intracellular solution to fill the pipette are […]
(§7) Composition of intracellular solutions used to fill pipette to record currents through NaV1.5, KV4.3, KV7.1/mink, Kir2.1, KV1.5, CaV1.2 and CaV3.2 channels
(§8) Solution to fill the pipette (mM)
(§9) Creatine-phospho kinase 50 U∙mL-1
(§10) After formation of a Gigaohm seal between the patch electrodes and individual cells (pipette resistance range: 2.0 MΩ - 7.0 MΩ; seal resistance range: > 1 GΩ) the cell membrane across the pipette tip was ruptured to assure electrical access to the cell interior (whole-cell patch-configuration). In case the quality of the seal was poor, the process of seal formation was repeated with a different cell and a new pipette. As soon as a stable seal was established outward tail currents were measured upon pulses described in the Table S2. If current density was judged to be too low for measurement, another cell was recorded. […]
(§11) voltage stimulation protocol indicated in the next table continuously run until the steady-state level of block was reached.
(§12) Stimulation conditions used to record currents through NaV1.5, KV4.3, KV7.1/mink, Kir2.1, KV1.5, CaV1.2 and CaV3.2 channels
(§13) Ion channel Holding potential Pulse / duration Frequency Reference compound […]
(§14) (resting / fast / slow sweeps at one (10 mM) inactivated concentration)

CaV3.2 = biological target: T2, CaV3.2 (Homo sapiens, UniProt O95180); assay: Whole-cell patch clamp on CaV3.2 (ICaT); assay type: cell-based; settings: read-out: Reference compound % inhibition
T2 construct: expressed in transfected cells
T2 sequence (O95180 whole entry): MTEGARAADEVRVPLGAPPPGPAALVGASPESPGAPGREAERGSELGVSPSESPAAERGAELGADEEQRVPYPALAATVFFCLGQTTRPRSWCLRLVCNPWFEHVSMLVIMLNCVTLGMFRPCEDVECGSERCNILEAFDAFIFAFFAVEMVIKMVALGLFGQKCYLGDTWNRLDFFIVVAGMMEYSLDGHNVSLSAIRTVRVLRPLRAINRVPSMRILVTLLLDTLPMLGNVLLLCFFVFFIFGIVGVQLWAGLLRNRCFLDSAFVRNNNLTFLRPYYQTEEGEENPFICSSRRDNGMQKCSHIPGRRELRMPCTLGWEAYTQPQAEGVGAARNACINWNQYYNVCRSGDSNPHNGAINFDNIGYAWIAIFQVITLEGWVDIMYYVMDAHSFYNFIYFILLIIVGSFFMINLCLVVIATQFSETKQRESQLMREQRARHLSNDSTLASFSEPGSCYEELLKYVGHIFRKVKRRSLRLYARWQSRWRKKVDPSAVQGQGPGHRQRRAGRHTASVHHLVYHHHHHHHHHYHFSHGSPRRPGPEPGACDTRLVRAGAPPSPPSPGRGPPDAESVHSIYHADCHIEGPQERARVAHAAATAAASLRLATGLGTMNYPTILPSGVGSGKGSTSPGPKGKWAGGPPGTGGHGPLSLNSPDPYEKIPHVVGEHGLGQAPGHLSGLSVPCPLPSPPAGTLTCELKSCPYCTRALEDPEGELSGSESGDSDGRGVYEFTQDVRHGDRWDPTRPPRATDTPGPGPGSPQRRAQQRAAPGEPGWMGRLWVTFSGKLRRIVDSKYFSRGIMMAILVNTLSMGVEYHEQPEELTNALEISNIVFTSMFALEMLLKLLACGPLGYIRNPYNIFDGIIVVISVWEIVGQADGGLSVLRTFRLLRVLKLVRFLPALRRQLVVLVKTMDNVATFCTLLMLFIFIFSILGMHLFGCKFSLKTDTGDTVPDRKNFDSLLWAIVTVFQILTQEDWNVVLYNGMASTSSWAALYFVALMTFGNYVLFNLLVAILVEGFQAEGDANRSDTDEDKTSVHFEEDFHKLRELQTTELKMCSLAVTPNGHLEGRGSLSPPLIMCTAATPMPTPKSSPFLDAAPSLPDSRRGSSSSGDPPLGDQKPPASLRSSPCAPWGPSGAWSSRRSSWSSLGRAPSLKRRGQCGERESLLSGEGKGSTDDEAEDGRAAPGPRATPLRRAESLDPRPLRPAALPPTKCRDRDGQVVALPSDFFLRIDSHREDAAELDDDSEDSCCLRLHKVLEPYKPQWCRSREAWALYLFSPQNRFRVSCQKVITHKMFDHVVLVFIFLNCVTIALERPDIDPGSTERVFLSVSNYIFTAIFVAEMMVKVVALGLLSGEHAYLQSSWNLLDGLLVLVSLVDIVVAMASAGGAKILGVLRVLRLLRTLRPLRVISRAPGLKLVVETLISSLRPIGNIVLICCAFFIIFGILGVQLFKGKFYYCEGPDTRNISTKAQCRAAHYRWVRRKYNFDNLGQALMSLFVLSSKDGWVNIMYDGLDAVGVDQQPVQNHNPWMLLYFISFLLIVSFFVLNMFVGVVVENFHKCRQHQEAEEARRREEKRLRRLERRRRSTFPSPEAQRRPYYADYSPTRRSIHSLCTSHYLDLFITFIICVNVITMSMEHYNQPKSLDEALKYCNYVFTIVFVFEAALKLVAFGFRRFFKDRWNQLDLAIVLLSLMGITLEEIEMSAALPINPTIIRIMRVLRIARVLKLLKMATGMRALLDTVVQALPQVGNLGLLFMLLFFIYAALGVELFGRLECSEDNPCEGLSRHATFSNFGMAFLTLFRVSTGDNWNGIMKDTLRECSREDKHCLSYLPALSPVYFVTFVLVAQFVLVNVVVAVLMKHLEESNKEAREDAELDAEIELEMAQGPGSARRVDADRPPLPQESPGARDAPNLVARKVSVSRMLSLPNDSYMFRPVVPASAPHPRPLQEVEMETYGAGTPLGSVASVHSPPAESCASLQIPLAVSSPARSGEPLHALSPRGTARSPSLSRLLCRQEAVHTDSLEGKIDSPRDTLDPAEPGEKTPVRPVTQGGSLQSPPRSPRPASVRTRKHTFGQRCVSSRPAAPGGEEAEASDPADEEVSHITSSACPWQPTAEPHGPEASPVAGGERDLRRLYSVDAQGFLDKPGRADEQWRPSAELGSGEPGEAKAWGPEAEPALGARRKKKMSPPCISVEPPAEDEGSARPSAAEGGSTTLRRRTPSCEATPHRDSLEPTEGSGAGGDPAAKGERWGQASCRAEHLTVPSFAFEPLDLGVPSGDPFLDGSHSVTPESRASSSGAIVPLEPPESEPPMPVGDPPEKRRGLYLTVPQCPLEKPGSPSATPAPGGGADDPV
Protocol: as §1, §2, §3, §4, §5, §6, §7, §8, §9, §10, §11, §12, §13, §14

late INa current = tested on: late INa current; set-up: method as in Obejero‐Paz et al., 2015; settings: ref Obejero‐Paz et al., 2015; cited from earlier work
hERG channel [6] = settings: cited from earlier work; remark: listed apart in the source
Kir2.1 = biological target: T3, Kir2.1 (Homo sapiens, UniProt P63252); assay: Whole-cell patch clamp on Kir2.1 (IK1); assay type: cell-based; settings: Kir2.1 IK1; 10 μM
T3 construct: expressed in transfected cells
T3 sequence (P63252 1-427): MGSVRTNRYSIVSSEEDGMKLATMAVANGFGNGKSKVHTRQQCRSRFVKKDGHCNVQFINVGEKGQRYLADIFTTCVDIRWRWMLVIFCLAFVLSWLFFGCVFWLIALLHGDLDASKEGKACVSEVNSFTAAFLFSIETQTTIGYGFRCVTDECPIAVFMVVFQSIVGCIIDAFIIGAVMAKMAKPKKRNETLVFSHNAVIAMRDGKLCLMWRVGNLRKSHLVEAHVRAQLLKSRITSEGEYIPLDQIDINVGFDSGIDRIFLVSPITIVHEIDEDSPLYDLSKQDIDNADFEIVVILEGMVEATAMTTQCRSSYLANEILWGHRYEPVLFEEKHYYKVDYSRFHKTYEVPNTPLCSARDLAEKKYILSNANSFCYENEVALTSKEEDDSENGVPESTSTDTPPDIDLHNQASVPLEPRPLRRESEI
Protocol: as §1, §2, §3, §4, §5, §6, §7, §8, §9, §10, §11, §12, §13, §14

KV7.1/mink = biological target: T4, KV7.1/mink (Homo sapiens, UniProt P51787); assay: Whole-cell patch clamp on KV7.1/mink (IKs); assay type: cell-based; settings: read-out: Reference compound % inhibition
T4 construct: expressed in transfected cells
Protocol: as §1, §2, §3, §4, §5, §6, §7, §8, §9, §10, §11, §12, §13, §14

KV1.5 = biological target: T5, KV1.5 (Homo sapiens, UniProt P22460); assay: Whole-cell patch clamp on KV1.5 (IKur); assay type: cell-based; settings: read-out: Reference compound % inhibition
T5 construct: expressed in transfected cells
T5 sequence (P22460 whole entry): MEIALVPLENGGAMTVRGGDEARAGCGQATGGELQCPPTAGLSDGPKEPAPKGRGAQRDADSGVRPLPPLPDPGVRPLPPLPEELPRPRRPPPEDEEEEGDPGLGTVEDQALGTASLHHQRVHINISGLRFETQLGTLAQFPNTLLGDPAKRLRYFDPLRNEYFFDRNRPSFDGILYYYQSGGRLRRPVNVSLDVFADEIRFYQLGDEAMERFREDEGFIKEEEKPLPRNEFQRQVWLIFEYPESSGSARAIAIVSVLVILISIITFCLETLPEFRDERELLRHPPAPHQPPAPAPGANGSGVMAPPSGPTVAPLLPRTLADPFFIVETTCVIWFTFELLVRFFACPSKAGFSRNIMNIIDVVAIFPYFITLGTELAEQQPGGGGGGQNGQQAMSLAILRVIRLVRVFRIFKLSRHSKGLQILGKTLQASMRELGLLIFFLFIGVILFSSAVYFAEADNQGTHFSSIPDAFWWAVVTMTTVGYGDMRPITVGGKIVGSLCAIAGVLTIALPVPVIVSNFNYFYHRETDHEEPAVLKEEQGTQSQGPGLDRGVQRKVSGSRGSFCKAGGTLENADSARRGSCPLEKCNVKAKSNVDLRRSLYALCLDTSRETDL
Protocol: as §1, §2, §3, §4, §5, §6, §7, §8, §9, §10, §11, §12, §13, §14

rabbit Purkinje fibres = assay: Dofetilide-induced early after-depolarizations and triggered activity in rabbit Purkinje fibres; assay type: cell-based
Protocol: Following a lethal dose of pentobarbital, the hearts of male New Zealand rabbits were immediately excised and immersed in a modified Tyrode solution maintained at room temperature and previously saturated with O2/CO2 (95%/5%). A piece of ventricle containing free running Purkinje fibres was fixed to the silastic bottom of an organ bath perfused with the same solution maintained at 37°C for 30 min. The preparation was then superfused with the modified Tyrode solution and stimulated for 30 min at 2 Hz and then at 1 Hz (2 ms stimulus at twice threshold). […] After a stabilization period of at least 1 h, action potentials typical for Purkinje fibres were recorded. Action potential reproducibility and stability were confirmed during a further 20 min stabilization period. […] Each was applied for 20 min to enable steady state to be reached. In addition, the emergence of early after‐depolarizations (EADs), favoured by calcium loading during the late phase 2 of the prolonged action potential, is recognized as a better marker of pro‐arrhythmic potential than APD prolongation alone.

hERG = tested on: hERG; set-up: method as in Jonker et al., 2005; settings: simulation study; 95% CI: 12–32 ms; ref Jonker et al., 2005; cited from earlier work

Cc1cccc(C)c1OCC(C)N (centres unmarked) [mexiletine]
disappearance of erythromycin-induced EADs (preparations) (canine Purkinje fibres): 7/9
block of late sodium current (late sodium current): about 20%
IC50 (late INa [1]): 17.6 ± 1.9 µM
IC50 (fast INa): 34.6 ± 2.9 µM
IC50 (hERG channel [2]): 3.7 ± 0.7 µM
therapeutic concentrations [3]: 3.4 to 9.5 µM

CCCCCCC[N+](CC)(CC)CCCCc1ccc(Cl)cc1 [clofilium, reference compound]
QTc interval (ms) (mean ± SEM) (anaesthetized rabbits; both, rabbit, in vivo): 152 ± 2 ms
QTc interval (ms) (mean ± SEM) (anaesthetized rabbits; both, rabbit, in vivo, 20 min): 157 ± 3 ms
QTc interval (ms) (mean ± SEM) (anaesthetized rabbits; both, rabbit, in vivo, 30 min): 168 ± 5 ms
QTc interval (ms) (mean ± SEM) (anaesthetized rabbits; both, rabbit, in vivo, 40 min): 172 ± 8 ms
prolongation of QTc interval vs. baseline (anaesthetized rabbits; both, rabbit, in vivo, iv, 60 min): +13 ± 5%
TdP occurrence (anaesthetized rabbits; clofilium up to 1 mg·kg^−1, n = 3/4): 75%
ventricular tachycardia incidence (anaesthetized rabbits; clofilium up to 1 mg·kg^−1, n = 4/4): 100%
increase in UTA ratio [4]: 90%

COc1ccccc1OCC(O)CN1CCN(CC(=O)Nc2c(C)cccc2C)CC1 (centres unmarked) [ranolazine]
block of late INa (late INa [5]): 21%

CN(C)[C@@H](CCOc1cccc2ccccc12)c1ccccc1 [Dapoxetine, reference compound]
inhibition at 30 µM (KV4.3): 74%

COCC(=O)O[C@]1(CCN(C)CCCc2nc3ccccc3[nH]2)CCc2cc(F)ccc2[C@@H]1C(C)C [Mibefradil, reference compound]
inhibition at 1 µM (CaV3.2): 83%

Fc1ccc(C(OCCN2CCN(CCCc3ccccc3)CC2)c2ccc(F)cc2)cc1 [vanoxerine]
IC50 (late INa current): 0.0852 µM

COc1ccc(CNCc2cccc3ccccc23)cc1 [ML 133, reference compound]
Reference compound % inhibition (Kir2.1): ML 133 (10 μM): 96%

OC(c1cc(C(F)(F)F)nc2c(C(F)(F)F)cccc12)C1CCCCN1 (centres unmarked) [Mefloquine, reference compound]
inhibition at 10 µM (KV7.1/mink): 61%

CCN(CC)CC(=O)Nc1c(C)cccc1C [Lidocaine]
block of late sodium current (late sodium current): about 20%

CC(C)(C)c1ccc(C(O)CCCN2CCC(C(O)(c3ccccc3)c3ccccc3)CC2)cc1 (centres unmarked) [Terfenadine, reference compound]
inhibition at 10 µM (KV1.5): 81%

CN(CCOc1ccc(NS(C)(=O)=O)cc1)CCc1ccc(NS(C)(=O)=O)cc1 [dofetilide, reference compound]
induction of EADs or triggered activity (rabbit Purkinje fibres; 0.1 μM): all 10 preparations
APD90 (rabbit Purkinje fibres; dofetilide 0.1 μM for 35 min, 0.25 Hz, trace of Figure 3B): 593 ms
QT prolongation corresponding to a 10% hERG blockade (hERG): 20 ms
